Laboratory results published in patent publication US8129527B2, “Analogs of dehydrophenylahistins and their therapeutic use” (Nereus Pharmacuticals, Inc., priority 2006, dated 2012).
≈ marks a conversion by molar mass, not a printed value. Where “and” joins values, the source holds several entries; their conditions need not be identical. Equal values may be shown once. One block for each compound: values may come before it.

Key:
[1] = test system: MCF-7 (Taxol Sensitive) human breast carcinoma; experiment: Drug resistant cell line pair, cytotoxicity (Example 10B); format: cell-based
Source text: (§1) 3). Human Breast Carcinoma Cell Line Pair: MCF-7 (Taxol Sensitive) and MCF-7/ADR (Taxol Resistant)

[2] = test system: MCF-7/ADR (Taxol Resistant) human breast carcinoma; experiment: as above; format: cell-based
Source text: as §1

[3] = test system: HuVEC; experiment: Action on microtubule function, α-tubulin staining; conditions: 2 μM, thirty minutes exposure
[4] = test system: MES-SA (Taxol Sensitive) human uterine sarcoma; experiment: Drug resistant cell line pair, cytotoxicity (Example 10B); format: cell-based; conditions: IC50 CsA Pretreat relative to No CsA
Source text: (§2) 1) Human Uterine Sarcoma Tumor Cell Line Pair: MES-SA (Taxol Sensitive) and MES-SA/Dx5 (Taxol Resistant).

[5] = test system: MES-SA/Dx5 (Taxol Resistant) human uterine sarcoma; experiment: as above; format: cell-based
Source text: as §2

[6] = test system: Trichophyton rubrum; experiment: Antifungal susceptibility testing, broth dilution (MIC/MFC); format: cell-based; conditions: Trichophyton rubrum
Procedure: (§3) Specifically, disclosed compounds were evaluated alongside commercially available microtubulin inhibitors as well as recognized antifungal agents.
(§4) Microorganisms against which these compounds were tested included: Candida albicans, Candida glabrata, Aspergillus fumigatus, Trichophyton rubrum, Trichophyton mentagrophytes, Epidermophyton floccosum. With the exception of Candida glabrata (one isolate), two isolates of each species were tested.
(§5) The minimum lethal concentration (MLC) was determined by plating […] from the MIC concentration and each concentration above the MIC. […] When a MIC was obtained, a minimum fungicidal concentration (MFC) was determined to assess the fungistatic/fungicidal nature of the compound.

[7] = test system: Aspergillus fumigatus; experiment: as above; format: cell-based; conditions: Aspergillus fumigatus, A. fumigatus isolate #2; read-out: MIC
Procedure: as §3, §4, §5

[8] = test system: Trichophyton mentagrophytes; experiment: as above; format: cell-based; conditions: Trichophyton mentagrophytes
Procedure: (§6) Specifically, disclosed compounds were evaluated alongside commercially available microtubulin inhibitors as well as recognized antifungal agents. […].
as §4
(§7) Drug concentrations were 0.03-16 μg/ml for the investigational compounds, 0.015-8 μg/ml for itraconazole and griseofulvin.
as §5, with “compound. […] The compound is scored as fungistatic if the cells are able to resume growth and fungicidal if no regrowth is possible because the compound had killed the organisms.” for “compound.”

[9] = test system: Epidermophyton floccosum; experiment: as above; format: cell-based
Procedure: as §6, §4, §7
as §5, with “compound. […] The compound is scored as fungistatic if the cells are able to resume growth and fungicidal if no regrowth is possible because the compound had killed the organisms.” for “compound.”

[10] = test system: Jurkat cells (human T cell leukemia line); experiment: DNA fragmentation (DNA laddering); format: cell-based
Source text: A late stage characteristic of apoptosis is internucleosomal DNA cleavage that results in a distinctive ladder pattern that can be visualized by gel electrophoresis.

Compound: CC(=O)O[C@H]1C(=O)[C@@]2(C)[C@H]([C@H](OC(=O)c3ccccc3)[C@]3(O)C[C@H](OC(=O)[C@H](O)[C@@H](NC(=O)c4ccccc4)c4ccccc4)C(C)=C1C3(C)C)[C@]1(OC(C)=O)CO[C@@H]1C[C@@H]2O [Taxol, reference compound]
IC50 ([1]; Homo sapiens, MCF7/Taxol, Table 15, read-out: MCF-7 Sensitive IC50): 2.6 nM | potency in the sensitive MCF-7 cell line ([1]; in words): low nanomolar potency | IC50 ([2]; Homo sapiens, NCI/ADR-RES, read-out: MCF-7/ADR Resistant IC 50 nM, Table 15): > 100 nM | MCF-7/ADR Resistant Ratio to Sensitive ([2]; Table 15): >>38 | potency in resistant MCF-7/ADR vs sensitive MCF-7 ([2]; in words): virtually inactive in the resistant cell line | microtubule depolymerization in HuVEC cells [3]: did not induce microtubule depolymerization | Ratio No CsA [4]: 0.6 and 0.4 | effect of Cyclosporin A (CsA) treatment ([5]; CsA pretreatment): restored the sensitivity to taxol | potency in the resistant MES-SA/DX5 line vs the sensitive line ([5]; in words): virtually inactive

MIC ([6]; T. rubrum isolate #1): 0.5 µg/mL (≈ 1.42 µM) | MIC ([6]; T. rubrum isolate #2): < 0.015 µg/mL | MIC [7]: 0.5 µg/mL (≈ 1.42 µM) | MIC ([8]; T. mentagrophytes isolate #1): 1 µg/mL (≈ 2.83 µM) | MIC ([8]; T. mentagrophytes isolate #2): 2 µg/mL (≈ 5.67 µM) | MIC ([9]; E. floccosum isolate #1): 2 µg/mL (≈ 5.67 µM) | MIC ([9]; E. floccosum isolate #2): 4 µg/mL (≈ 11.3 µM)
Compound: COC1=CC(=O)C[C@@H](C)[C@]12Oc1c(Cl)c(OC)cc(OC)c1C2=O [griseofulvin, Griseofulvin, reference compound]

Compound: phenylahistin [halimide, reference compound]
DNA laddering potency compared with KPU-2 [10]: much less potent
